“Also recorded” adds a separate entry of the source. Like-named read-outs stand apart in the source and are kept apart here.
Assays:
[1] = molecular target: T1, Chimera 1 (Homo sapiens, UniProt P36544, M226I/T225V); test: Two electrode voltage clamp in Xenopus oocytes (POETs), agonist and modulator responses; type: cell-based; set-up: expressed in transfected cells; host or cells: Xenopus laevis oocytes (transient, A1)
[2] = molecular target: T2, wild-type α7 nicotinic acetylcholine receptor (Homo sapiens, UniProt P36544); test: Two electrode voltage clamp in Xenopus oocytes, agonist and modulator responses; type: cell-based
T2 construct: expressed in transfected cells; host or cells: Xenopus laevis oocytes
T2 sequence (P36544 23-502): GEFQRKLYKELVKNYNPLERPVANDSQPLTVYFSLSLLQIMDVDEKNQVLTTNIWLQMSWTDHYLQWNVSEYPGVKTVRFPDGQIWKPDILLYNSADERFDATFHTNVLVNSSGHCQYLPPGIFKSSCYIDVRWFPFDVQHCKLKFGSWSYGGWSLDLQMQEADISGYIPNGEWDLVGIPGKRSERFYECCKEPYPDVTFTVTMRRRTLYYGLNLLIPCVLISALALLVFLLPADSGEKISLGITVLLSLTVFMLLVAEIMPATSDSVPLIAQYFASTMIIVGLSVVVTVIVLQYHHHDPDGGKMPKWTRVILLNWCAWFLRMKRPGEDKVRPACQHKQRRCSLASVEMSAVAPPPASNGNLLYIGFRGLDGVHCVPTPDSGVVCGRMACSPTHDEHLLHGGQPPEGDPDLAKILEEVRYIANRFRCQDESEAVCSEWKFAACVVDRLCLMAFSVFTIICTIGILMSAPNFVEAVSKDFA

[3] = molecular target: T3, Chimera 2 (Homo sapiens, UniProt P36544, M226I/T225V); test: Two electrode voltage clamp in Xenopus oocytes (POETs), agonist and modulator responses; type: cell-based; set-up: expressed in transfected cells; host or cells: Xenopus laevis oocytes (transient, A2)
T3 sequence (P36544 with tags, fused parts or gaps T225V/M226I): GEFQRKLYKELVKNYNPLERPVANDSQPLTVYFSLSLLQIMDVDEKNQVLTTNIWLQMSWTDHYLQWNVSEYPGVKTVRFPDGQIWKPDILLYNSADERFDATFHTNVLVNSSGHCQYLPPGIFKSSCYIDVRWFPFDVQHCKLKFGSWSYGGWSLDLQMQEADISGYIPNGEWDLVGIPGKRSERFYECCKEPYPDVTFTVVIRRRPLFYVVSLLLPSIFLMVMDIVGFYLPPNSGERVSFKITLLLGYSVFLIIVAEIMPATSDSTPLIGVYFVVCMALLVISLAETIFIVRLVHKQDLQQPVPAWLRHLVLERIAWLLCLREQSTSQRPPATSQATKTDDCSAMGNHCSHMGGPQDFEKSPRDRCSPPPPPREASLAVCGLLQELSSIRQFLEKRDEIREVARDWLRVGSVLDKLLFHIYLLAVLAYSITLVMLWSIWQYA

[4] = molecular target: T3, Chimera 2; test: Membrane potential imaging (FLIPR-FMP) in HEK-293 cells; type: cell-based; set-up: expressed in transfected cells; details: for Modulation of submaximum agonist-evoked membrane potential response (words): HEK-293 cells, FMP
[5] = molecular target: T3, Chimera 2; test: Whole cell patch clamp in HEK-293 cells; type: cell-based; set-up: expressed in transfected cells
[6] = molecular target: T1, Chimera 1; test: Membrane potential imaging (FLIPR-FMP) in HEK-293 cells; type: cell-based; set-up: expressed in transfected cells; details: for Modulation of submaximum agonist-evoked membrane potential response (words): HEK-293 cells, FMP
[7] = molecular target: T4, rat brain α7* nicotinic acetylcholine receptors (Rattus norvegicus, UniProt Q05941); test: [3H]A-585539 radioligand binding, rat brain homogenates; details: rat cortex, increasing concentrations
T4 construct: expressed both as a native (rat cortex) or α7/5-HT3 chimeric receptor; from tissue; host or cells: rat brain / rat cortex homogenates
T4 sequence (Q05941 23-502): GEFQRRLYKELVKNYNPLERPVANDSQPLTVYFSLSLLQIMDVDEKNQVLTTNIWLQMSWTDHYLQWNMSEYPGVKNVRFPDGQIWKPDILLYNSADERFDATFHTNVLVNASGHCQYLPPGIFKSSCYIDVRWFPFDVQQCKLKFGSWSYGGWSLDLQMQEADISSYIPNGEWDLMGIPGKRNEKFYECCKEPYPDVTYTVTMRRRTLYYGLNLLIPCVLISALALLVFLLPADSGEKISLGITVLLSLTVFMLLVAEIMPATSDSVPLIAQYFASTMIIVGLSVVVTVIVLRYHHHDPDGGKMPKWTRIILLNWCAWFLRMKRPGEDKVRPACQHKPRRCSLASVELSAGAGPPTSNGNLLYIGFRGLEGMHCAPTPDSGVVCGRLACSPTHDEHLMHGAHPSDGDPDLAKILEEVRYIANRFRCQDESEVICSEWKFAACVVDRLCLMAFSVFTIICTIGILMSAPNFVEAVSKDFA

[8] = molecular target: T5, wild-type human 5-HT3A receptors (Homo sapiens, UniProt P46098); test: Two electrode voltage clamp in Xenopus oocytes, agonist and modulator responses; type: cell-based
T5 construct: expressed in transfected cells; host or cells: Xenopus laevis oocytes
T5 sequence (P46098 1-484 isoform P46098-4): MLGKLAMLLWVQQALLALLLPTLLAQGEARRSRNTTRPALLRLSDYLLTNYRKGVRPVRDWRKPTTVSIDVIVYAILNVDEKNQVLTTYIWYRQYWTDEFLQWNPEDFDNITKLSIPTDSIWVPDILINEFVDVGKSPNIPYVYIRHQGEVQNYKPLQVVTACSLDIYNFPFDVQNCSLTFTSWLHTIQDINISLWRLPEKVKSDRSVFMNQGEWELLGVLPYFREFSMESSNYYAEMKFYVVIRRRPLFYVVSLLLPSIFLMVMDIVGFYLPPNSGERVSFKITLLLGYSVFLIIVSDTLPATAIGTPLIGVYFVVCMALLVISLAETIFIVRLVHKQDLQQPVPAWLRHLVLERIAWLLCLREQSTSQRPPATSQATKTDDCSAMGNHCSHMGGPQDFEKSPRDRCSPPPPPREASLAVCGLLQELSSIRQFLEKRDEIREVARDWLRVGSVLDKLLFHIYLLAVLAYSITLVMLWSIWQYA

[9] = molecular target: T3, Chimera 2; test: [3H]A-585539 radioligand binding, HEK-293 membranes/homogenates; set-up: expressed in transfected cells; details: increasing concentrations

T1 sequence (P36544 with tags, fused parts or gaps T225V/M226I): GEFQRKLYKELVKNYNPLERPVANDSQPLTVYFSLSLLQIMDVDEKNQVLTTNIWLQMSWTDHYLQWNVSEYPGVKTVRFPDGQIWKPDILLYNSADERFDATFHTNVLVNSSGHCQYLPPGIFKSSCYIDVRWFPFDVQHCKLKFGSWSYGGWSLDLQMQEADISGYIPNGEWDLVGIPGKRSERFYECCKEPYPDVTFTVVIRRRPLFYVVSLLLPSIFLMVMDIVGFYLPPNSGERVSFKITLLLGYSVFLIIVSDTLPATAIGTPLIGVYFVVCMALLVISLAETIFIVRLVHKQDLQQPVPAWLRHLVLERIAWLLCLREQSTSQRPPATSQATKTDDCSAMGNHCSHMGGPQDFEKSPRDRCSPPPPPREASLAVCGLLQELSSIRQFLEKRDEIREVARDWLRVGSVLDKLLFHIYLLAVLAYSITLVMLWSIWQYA

Structure (SMILES): Oc1ccc2[nH]ccc2c1 [5-HI, 5-hydroxyindole]
- Percentage potentiation of submaximum agonist-evoked responses (mean±S.E.M.) ([1]; 100 μM ACh): 428±23%
- ng of ACh curve after modulator ([1]; 1 mM 5-HI): 1.4 ± 0.13
- Effect of modulator on ACh-evoked current (words) ([1]; Xenopus oocytes): positive modulation is still observed
- EC50 ([1]; read-out: Positive allosteric modulation potency, two electrode voltage clamp: EC50 (95% C.I.), submaximum ACh (100 μM)-evoked response): 500 µM
- EC50 [2]: 667 µM
- Percentage potentiation of submaximum agonist-evoked responses (mean±S.E.M.) ([2]; 100 μM ACh): 516±59%
- ng of ACh curve after modulator ([2]; 1 mM 5-HI): 1.97 ± 0.84
- EC50 ([2]; Positive allosteric modulation potency, two electrode voltage clamp: EC50 (95% C.I.), submaximum ACh (100 μM)-evoked response): 500 to 700 µM
- Effect of modulator on ACh-evoked current (words) ([2]; Xenopus oocytes): substantial increase in the amplitude of the subsequent ACh-evoked current
- Peak current amplitude evoked by compound alone, normalized to 10 μM ACh ([3]; 1 mM): 5.4+/−1.8%
- ng of ACh curve after modulator ([3]; 1 mM 5-HI): 1.35 ± 0.25
- Peak current amplitude evoked by compound alone, normalized to 10 μM ACh ([3]; 3 mM): 37.8+/−11.6%
- Percentage potentiation of submaximum agonist-evoked responses (mean±S.E.M.) ([3]; 10-30 μM ACh): 262±39%
- Direct current activation by modulator alone ([3]; Xenopus oocytes): could also evoke responses in Chimera 2; also recorded: evoked unique agonist-like current
- EC50 ([3]; read-out: Positive allosteric modulation potency, two electrode voltage clamp: EC50 (95% C.I.), submaximum ACh (10-30 μM)-evoked response): 496 µM
- Modulation of submaximum agonist-evoked membrane potential response (words) [4]: potentiated submaximum NS6784 evoked responses; also recorded: effective as positive allosteric modulators; also recorded: effective in both Chimeras
- Modulation of submaximum agonist-evoked membrane potential response (words) ([4]; listed as 5-hydroxyindole): able to potentiate both Chimeras
- EC50 ([4]; read-out: FMP imaging: positive allosteric modulation EC50 (95% C.I.), submaximum NS6784 (60-70 nM)): 324 µM
- Maximum positive allosteric modulation efficacy ([4]; submaximum NS6784 60-70 nM): 177±8%
- Directly evoked peak response normalized to 100 μM ACh ([5]; 10 mM): 26.4±7.1%
- Directly evoked total charge (integral) normalized to 100 μM ACh ([5]; 10 mM): 52.4±10.3%
- Direct current activation by modulator alone ([5]; genistein 100 μM, 5-HI 10 mM): Qualitatively similar responses were also obtained
- Positive allosteric modulation of ACh-evoked current ([5]; genistein 30-50 μM, 5-HI 1 mM): effective as positive allosteric modulators
- Modulation of submaximum agonist-evoked membrane potential response (words) [6]: potentiated the submaximum α7 agonist (NS6784) evoked membrane potential depolarization; also recorded: effective in both Chimeras
- Modulation of submaximum agonist-evoked membrane potential response (words) ([6]; listed as 5-hydroxyindole): able to potentiate both Chimeras
- EC50 ([6]; read-out: FMP imaging: positive allosteric modulation EC50 (95% C.I.), submaximum NS6784 (120-200 nM)): 234 µM
- Maximum positive allosteric modulation efficacy ([6]; submaximum NS6784 120-200 nM): 204±9%
- Competition / displacement of [3H]A-585539 binding [7]: neither compound effectively displaced the binding
- Percentage potentiation of submaximum agonist-evoked responses (mean±S.E.M.) ([8]; 1-3 μM 5-HT): 58±9%
- Effect of modulator on agonist (5-HT)-evoked current ([8]; Xenopus oocytes): Neither compound increased the responses
- inhibition at 10000 µM ([8]; at 10,000 μM (10 mM), read-out: Observed % inhibitory effect on submaximum 5-HT-evoked response): ~40%
- Competition / displacement of [3H]A-585539 binding [9]: neither compound effectively displaced the binding

Source: patent publication US8759504B2, “Cholinergic/serotoninergic receptor and uses thereof” (AbbVie Inc., priority 2007, dated 2014)
